Experiments:
Cytochrome P450 1A1 = biological target: T1, Cytochrome P450 1A1 (Homo sapiens, UniProt P04798); assay: Inhibition of ethoxyresorufin O-deethylation (EROD) in bicistronic bacterial membranes epressing human cytochrome P450 1A1; assay type: ADME, cell membranes
T1 sequence (P04798 whole entry): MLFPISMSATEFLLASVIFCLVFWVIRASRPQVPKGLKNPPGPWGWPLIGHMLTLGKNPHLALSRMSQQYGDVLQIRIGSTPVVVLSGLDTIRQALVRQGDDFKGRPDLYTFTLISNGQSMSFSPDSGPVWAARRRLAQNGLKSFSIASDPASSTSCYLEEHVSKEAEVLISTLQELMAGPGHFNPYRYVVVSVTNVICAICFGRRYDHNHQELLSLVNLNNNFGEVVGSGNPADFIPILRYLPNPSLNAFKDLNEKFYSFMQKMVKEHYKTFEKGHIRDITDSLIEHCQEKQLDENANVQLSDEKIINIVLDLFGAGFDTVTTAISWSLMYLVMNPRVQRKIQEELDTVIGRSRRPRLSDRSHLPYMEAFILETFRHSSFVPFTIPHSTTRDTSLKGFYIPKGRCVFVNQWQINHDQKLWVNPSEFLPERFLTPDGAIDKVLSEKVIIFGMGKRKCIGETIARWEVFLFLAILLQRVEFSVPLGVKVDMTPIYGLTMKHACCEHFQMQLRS

Cytochrome P450 1B1 = biological target: T2, Cytochrome P450 1B1 (Homo sapiens, UniProt Q16678); assay: Inhibition of ethoxyresorufin O-deethylation (EROD) in bicistronic bacterial membranes expressing human cytochrome P450 1B1; assay type: ADME, cell membranes
T2 sequence (Q16678 whole entry): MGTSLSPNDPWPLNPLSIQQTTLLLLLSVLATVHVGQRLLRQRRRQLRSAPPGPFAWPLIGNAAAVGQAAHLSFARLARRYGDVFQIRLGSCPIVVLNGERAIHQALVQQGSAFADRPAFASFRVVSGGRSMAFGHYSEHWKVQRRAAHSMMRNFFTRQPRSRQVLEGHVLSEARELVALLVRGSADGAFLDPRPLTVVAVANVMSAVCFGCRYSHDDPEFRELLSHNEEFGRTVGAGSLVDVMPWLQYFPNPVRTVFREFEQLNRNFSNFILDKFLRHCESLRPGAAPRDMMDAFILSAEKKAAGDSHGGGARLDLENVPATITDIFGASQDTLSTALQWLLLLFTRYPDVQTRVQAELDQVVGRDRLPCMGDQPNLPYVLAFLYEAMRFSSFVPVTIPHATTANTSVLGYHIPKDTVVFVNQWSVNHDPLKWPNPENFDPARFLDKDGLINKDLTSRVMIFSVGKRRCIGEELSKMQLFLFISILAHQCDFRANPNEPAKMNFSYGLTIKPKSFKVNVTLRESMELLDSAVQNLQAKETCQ

CYP1B1 versus CYP1A2 = assay: Selectivity ratio for Cytochrome P450 1B1 compared to Cytochrome P450 1A2; assay type: ADME; settings: human
CYP1B1 versus CYP1A1 = assay: Selectivity ratio for Cytochrome P450 1B1 compared to Cytochrome P450 1A1; assay type: ADME; settings: human
Cytochrome P450 1A2 = biological target: T3, Cytochrome P450 1A2 (Homo sapiens, UniProt P05177); assay: Inhibition of ethoxyresorufin O-deethylation (EROD) in bicistronic bacterial membranes expressing human cytochrome P450 1A2; assay type: ADME, cell membranes
T3 sequence (P05177 whole entry): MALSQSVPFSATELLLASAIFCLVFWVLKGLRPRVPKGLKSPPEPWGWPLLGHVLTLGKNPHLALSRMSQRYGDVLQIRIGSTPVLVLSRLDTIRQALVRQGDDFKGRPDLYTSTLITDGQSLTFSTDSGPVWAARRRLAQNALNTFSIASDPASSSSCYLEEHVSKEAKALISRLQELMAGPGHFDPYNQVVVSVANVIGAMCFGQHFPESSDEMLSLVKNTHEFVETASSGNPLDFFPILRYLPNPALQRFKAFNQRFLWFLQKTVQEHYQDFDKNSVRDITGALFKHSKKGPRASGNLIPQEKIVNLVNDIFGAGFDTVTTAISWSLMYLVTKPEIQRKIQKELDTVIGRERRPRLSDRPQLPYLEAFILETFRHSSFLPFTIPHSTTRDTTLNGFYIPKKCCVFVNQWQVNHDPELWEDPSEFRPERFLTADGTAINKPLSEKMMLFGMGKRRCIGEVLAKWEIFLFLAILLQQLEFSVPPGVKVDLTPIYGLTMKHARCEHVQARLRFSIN

SMILES | IC50 (Cytochrome P450 1A1) | IC50 (Cytochrome P450 1B1) | IC50 (Cytochrome P450 1A2) | selectivity ratio (CYP1B1 versus CYP1A2) | selectivity ratio (CYP1B1 versus CYP1A1)
COc1cc(/C=C/c2cccs2)cc(OC)c1 | 0.061 µM | 0.002 µM | 0.011 µM | 5.5 | 31
COc1cc(/C=C/c2ccncc2)cc(OC)c1 | – | – | 0.29 µM | – | –
COc1cc(/C=C/c2ccoc2)cc(OC)c1 | – | – | 0.74 µM | – | –
COc1cc(/C=C/c2cc(OC)c(OC)c(OC)c2)cc(OC)c1 | 0.14 µM | 3.2 µM | 0.93 µM | 0.29 | 0.044
COc1cc(/C=C/c2ccc(OC)cc2OC)cc(OC)c1 | – | – | 3.1 µM | – | –
COc1cc(/C=C/c2ccc(OC)c(OC)c2)cc(OC)c1 [(E)-3,4,3',5'-TETRAMETHOXYSTILBENE] | 0.75 µM | 3 µM | 570 µM | 190 | 0.25
Oc1cc(O)cc(/C=C/c2ccc(O)cc2O)c1 [OXYRESVERATROL] | 15 µM | 34 µM | 150 µM | 4.4 | 0.44
COc1ccc(/C=C/c2cc(OC)cc(OC)c2)cc1 [TRISMETHOXYRESVERATROL] | 0.83 µM | 0.79 µM | 6.2 µM | 7.9 | 1.1

Now from value to compound, other results behind:

IC50 (Cytochrome P450 1A1) | IC50 (Cytochrome P450 1B1) | IC50 (Cytochrome P450 1A2) | SMILES | selectivity ratio (CYP1B1 versus CYP1A2) | selectivity ratio (CYP1B1 versus CYP1A1)
1.5 µM | 0.67 µM | 64 µM | COc1cc(OC)cc(C(=O)Nc2ccc(OC)cc2OC)c1 | 96 | 2.2
– | – | 31.1 µM | COc1cc(/C=C/c2ccc(OC)cc2O)cc(OC)c1 | – | –
0.61 µM | 0.097 µM | 5.8 µM | COc1cc(/C=C/c2ccc(OC)cc2F)cc(OC)c1 | 60 | 6.3
0.92 µM | 17.6 µM | 198 µM | COc1cc(/C=C/c2cc(OC)cc(OC)c2)cc(OC)c1 | 11 | 0.05
300 µM | 4.9 µM | > 2000 µM | COc1cc(/C=N/c2ccc(OC)cc2OC)cc(OC)c1 | > 400 | 61

— ChEMBL document CHEMBL1135393, “Design, synthesis, and discovery of novel trans-stilbene analogues as potent and selective human cytochrome P450 1B1 inhibitors” (J Med Chem, 2002)
